Results as given in ChEMBL document CHEMBL5465560, “Selectivity Literature for EUbOPEN Chemogenomic Library” (2024).

Assays:
[1] = molecular target: Tyrosine-protein kinase receptor UFO (Homo sapiens) (UniProt P30530); assay: Selectivity interaction (KinomeScan (DiscoverX)) EUB0000229b AXL; details: at 10 µM
[2] = molecular target: 5-hydroxytryptamine receptor 1B (Homo sapiens) (UniProt P28222); assay: Selectivity interaction (Panel of kinases, GPCRs, ion channels and transporters (enzymatic assay)) EUB0000266bCl HTR1B
[3] = molecular target: Rho-associated protein kinase 2 (Homo sapiens, UniProt O75116); assay: Selectivity interaction (KinomeScan (DiscoverX)) EUB0001079a ROCK2; details: at 1 µM
Rho-associated protein kinase 2, sequence (O75116 whole entry, looked up): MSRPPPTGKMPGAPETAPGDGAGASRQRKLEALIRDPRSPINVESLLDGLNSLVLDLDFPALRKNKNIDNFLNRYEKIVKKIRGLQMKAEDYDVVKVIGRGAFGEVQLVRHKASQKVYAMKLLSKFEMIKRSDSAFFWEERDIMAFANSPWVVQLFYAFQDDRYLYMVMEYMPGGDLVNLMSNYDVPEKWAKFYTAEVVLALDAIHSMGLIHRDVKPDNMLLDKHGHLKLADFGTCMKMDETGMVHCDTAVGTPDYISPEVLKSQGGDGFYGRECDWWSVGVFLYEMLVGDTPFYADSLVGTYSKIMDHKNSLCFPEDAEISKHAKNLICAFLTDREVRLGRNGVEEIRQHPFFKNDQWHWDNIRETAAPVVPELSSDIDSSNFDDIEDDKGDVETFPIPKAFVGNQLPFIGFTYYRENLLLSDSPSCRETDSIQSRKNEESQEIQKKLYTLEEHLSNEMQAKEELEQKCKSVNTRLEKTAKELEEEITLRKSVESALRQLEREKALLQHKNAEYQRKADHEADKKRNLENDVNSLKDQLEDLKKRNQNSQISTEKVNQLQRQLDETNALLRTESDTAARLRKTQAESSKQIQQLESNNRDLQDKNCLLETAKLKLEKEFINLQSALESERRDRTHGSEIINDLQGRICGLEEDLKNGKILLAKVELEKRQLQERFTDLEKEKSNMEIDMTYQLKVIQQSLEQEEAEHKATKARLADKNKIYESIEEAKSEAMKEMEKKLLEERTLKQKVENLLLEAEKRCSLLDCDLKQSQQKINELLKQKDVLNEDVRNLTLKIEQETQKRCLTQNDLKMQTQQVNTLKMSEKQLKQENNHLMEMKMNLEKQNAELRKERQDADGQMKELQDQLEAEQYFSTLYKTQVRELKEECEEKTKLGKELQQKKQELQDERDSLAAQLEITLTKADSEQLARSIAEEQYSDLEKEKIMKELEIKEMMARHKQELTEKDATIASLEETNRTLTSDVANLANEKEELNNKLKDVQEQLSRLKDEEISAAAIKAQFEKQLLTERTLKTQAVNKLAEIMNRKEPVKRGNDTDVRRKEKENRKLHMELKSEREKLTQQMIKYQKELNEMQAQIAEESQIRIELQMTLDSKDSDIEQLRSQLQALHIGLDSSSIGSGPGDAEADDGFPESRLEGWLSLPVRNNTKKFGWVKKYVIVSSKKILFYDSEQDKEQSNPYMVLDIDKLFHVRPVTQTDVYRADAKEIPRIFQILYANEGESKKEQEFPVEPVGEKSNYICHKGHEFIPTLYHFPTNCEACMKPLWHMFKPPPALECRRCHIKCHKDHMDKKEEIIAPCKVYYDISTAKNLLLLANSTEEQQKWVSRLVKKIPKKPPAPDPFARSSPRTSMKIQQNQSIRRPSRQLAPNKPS

[4] = molecular target: T1, Mitogen-activated protein kinase kinase kinase 3 (Homo sapiens) (UniProt Q99759); assay: Selectivity interaction (KinomeScan (DiscoverX)) EUB0000666a MAP3K3; details: at 10 µM
T1 sequence (whole entry): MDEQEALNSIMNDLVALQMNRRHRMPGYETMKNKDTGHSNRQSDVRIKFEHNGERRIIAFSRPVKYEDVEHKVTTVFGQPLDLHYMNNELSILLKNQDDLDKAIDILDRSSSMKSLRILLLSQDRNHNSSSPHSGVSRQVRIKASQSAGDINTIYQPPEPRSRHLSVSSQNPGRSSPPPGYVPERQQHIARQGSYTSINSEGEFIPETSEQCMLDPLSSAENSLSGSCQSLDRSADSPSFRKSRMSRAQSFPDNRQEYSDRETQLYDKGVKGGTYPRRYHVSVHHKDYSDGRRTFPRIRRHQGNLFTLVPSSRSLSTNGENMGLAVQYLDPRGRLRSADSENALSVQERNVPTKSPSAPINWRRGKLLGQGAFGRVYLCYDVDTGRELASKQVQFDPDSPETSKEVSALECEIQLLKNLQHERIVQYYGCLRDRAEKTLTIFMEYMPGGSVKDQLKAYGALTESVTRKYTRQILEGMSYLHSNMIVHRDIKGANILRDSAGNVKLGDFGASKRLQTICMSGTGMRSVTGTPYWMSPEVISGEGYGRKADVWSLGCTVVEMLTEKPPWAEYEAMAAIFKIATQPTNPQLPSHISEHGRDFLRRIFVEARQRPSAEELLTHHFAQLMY

[5] = molecular target: Serine/threonine-protein kinase N1 (Homo sapiens, UniProt Q16512); assay: Selectivity interaction (KinomeScan (DiscoverX)) EUB0000666a PKN1; details: at 10 µM
Serine/threonine-protein kinase N1, sequence (Q16512 2-942 limits assumed): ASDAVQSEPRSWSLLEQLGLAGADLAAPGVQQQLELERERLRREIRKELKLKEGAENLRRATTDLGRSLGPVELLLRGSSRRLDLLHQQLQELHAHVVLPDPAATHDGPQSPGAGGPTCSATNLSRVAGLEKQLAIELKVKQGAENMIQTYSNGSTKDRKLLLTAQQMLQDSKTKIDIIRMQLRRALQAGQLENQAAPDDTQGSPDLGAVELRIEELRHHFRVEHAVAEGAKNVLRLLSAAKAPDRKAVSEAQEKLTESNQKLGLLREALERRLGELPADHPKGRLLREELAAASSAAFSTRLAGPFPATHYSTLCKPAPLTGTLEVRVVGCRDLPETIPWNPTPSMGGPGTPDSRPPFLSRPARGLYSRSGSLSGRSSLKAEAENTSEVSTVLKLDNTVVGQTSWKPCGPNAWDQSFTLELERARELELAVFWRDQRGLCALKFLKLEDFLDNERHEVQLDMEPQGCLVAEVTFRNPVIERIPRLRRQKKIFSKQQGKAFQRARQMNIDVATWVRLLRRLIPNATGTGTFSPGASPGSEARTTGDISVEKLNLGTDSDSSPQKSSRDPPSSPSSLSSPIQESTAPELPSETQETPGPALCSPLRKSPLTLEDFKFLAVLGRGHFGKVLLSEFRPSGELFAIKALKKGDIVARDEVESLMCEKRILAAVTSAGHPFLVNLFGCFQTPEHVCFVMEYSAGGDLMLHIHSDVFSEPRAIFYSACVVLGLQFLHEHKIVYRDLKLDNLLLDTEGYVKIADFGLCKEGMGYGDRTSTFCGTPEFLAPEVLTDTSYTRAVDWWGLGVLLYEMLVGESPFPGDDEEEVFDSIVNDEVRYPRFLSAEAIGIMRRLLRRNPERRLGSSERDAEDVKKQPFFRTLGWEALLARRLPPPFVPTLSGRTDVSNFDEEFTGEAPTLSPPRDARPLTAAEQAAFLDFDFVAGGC

[6] = molecular target: CDK6/cyclin D1 (Homo sapiens) (UniProt P24385+Q00534); assay: (§1) Selectivity interaction (Rxn Biology Kinase assay) EUB0001632a CDK6; assay type: protein-complex assay; details: at 10 µM
[7] = molecular target: CDK6/cyclin D3 (Homo sapiens) (UniProt P30281+Q00534); assay: as §1; assay type: protein-complex assay; details: at 10 µM
[8] = molecular target: T2, Dual specificity mitogen-activated protein kinase kinase 3 (Homo sapiens) (UniProt P46734); assay: Selectivity interaction (ActivX KiNativ screen (kinase selectivity in THP-1 cell lysates)) EUB0000639a MAP2K3; assay type: subcellular; details: lysate, at 0.04 µM
T2 sequence (whole entry): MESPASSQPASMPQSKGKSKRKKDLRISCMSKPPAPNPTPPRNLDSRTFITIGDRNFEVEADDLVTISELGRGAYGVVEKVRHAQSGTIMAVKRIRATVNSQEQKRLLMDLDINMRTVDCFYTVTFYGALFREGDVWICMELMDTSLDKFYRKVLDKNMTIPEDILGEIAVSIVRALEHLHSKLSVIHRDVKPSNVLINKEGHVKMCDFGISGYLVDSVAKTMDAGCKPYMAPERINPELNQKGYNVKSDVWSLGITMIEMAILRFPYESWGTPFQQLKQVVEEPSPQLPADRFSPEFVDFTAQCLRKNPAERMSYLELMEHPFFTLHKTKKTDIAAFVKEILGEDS

[9] = molecular target: T3, Protein kinase C epsilon type (Homo sapiens) (UniProt Q02156); assay: Selectivity interaction (Ambit KINOMEscan and KiNATiv profiling in Jurkat cells) EUB0000090b PRKCE; assay type: cell-based; details: at 1 µM
T3 sequence (whole entry): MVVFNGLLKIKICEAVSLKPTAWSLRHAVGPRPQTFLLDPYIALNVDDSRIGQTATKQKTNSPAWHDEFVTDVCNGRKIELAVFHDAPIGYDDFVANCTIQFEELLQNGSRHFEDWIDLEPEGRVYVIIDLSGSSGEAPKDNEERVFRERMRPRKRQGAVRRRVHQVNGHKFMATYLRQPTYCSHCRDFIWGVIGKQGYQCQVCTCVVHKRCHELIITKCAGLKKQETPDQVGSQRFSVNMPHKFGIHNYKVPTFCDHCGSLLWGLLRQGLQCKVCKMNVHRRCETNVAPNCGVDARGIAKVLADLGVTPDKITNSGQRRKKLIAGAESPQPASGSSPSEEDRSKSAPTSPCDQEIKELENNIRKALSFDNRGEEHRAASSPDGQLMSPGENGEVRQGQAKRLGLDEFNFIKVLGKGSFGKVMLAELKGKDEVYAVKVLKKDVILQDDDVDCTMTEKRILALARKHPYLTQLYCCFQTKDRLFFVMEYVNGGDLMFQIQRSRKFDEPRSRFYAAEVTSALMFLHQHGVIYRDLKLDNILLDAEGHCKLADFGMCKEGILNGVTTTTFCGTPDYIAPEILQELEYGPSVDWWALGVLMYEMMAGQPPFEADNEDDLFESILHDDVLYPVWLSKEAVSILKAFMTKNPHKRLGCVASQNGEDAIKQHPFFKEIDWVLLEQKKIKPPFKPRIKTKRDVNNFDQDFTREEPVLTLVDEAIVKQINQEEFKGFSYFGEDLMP

[10] = molecular target: T4, Activin receptor type-1 (Homo sapiens) (UniProt Q04771); assay: Selectivity interaction (Ambit KINOMEscan and KiNATiv profiling in Jurkat cells) EUB0000090b ACVR1; assay type: cell-based; details: at 1 µM
T4 sequence (whole entry): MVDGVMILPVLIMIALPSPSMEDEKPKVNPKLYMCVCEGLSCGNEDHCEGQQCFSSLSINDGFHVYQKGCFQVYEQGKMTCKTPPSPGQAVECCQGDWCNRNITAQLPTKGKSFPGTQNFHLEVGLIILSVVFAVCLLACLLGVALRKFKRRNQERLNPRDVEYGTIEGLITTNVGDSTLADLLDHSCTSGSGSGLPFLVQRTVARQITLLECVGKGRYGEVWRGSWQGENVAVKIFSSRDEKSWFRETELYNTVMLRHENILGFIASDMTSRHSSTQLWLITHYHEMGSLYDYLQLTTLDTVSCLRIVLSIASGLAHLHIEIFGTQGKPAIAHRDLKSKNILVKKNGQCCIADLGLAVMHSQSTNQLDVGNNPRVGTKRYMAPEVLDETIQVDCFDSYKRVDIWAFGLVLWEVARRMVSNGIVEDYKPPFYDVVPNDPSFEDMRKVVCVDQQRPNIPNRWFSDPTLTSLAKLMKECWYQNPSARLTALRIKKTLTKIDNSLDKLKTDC

[11] = molecular target: Mitogen-activated protein kinase kinase kinase 11 (Homo sapiens) (UniProt Q16584); assay: Selectivity interaction (Ambit KINOMEscan and KiNATiv profiling in Jurkat cells) EUB0000090b MAP3K11; assay type: cell-based; details: at 1 µM
Mitogen-activated protein kinase kinase kinase 11 (Homo sapiens), sequence (Q16584 whole entry, looked up): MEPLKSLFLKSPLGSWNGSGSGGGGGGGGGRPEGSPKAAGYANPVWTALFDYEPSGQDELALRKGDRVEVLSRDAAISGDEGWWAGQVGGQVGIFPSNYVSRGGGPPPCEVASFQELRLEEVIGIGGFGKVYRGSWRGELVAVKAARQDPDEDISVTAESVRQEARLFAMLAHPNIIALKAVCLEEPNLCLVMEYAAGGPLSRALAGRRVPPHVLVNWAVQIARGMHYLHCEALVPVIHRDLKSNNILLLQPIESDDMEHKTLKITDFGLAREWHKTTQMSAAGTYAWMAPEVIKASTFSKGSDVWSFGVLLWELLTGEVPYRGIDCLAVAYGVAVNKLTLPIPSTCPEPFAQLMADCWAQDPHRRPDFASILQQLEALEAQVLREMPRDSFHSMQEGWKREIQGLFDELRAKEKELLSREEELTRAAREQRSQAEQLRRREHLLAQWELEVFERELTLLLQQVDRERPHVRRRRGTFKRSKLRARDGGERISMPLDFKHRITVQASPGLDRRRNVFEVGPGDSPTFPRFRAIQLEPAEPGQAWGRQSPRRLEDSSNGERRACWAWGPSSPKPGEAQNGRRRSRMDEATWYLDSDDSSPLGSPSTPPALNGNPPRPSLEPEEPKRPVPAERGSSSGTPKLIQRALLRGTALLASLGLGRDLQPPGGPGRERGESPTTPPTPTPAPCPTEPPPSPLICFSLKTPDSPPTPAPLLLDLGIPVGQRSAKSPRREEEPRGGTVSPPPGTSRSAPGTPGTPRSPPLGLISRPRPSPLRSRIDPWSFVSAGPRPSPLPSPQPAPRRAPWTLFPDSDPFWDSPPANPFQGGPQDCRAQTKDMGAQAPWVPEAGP

[12] = molecular target: Serine/threonine-protein kinase MARK2 (Homo sapiens) (UniProt Q7KZI7); assay: Selectivity interaction (ActivX KiNativ screen (ex vivo kinase selectivity in human PBMCs)) EUB0001619a MARK2; assay type: cell-based; details: PBMC, at 1 µM
Serine/threonine-protein kinase MARK2 (Homo sapiens), sequence (Q7KZI7 whole entry): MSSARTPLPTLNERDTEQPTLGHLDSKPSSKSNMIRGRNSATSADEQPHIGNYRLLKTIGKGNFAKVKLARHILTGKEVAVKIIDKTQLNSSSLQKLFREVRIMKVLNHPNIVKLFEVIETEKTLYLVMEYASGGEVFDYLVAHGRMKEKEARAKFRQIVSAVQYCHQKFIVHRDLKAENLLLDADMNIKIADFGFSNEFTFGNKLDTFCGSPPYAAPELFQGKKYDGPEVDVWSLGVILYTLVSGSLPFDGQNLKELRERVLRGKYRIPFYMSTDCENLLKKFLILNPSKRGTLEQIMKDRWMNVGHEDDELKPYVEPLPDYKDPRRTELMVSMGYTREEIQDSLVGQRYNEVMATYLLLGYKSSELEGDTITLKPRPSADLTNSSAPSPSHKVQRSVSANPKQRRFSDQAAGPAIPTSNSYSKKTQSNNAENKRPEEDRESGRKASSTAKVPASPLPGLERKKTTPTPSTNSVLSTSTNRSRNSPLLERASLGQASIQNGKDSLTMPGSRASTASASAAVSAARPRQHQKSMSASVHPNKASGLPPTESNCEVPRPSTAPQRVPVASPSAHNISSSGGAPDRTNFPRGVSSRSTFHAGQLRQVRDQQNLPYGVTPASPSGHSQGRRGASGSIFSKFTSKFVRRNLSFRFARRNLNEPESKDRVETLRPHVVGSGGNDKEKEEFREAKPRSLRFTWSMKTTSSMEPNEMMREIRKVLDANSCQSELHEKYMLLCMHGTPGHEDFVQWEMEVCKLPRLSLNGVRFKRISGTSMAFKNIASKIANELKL

Tyrosine-protein kinase receptor UFO (Homo sapiens), sequence (P30530 whole entry): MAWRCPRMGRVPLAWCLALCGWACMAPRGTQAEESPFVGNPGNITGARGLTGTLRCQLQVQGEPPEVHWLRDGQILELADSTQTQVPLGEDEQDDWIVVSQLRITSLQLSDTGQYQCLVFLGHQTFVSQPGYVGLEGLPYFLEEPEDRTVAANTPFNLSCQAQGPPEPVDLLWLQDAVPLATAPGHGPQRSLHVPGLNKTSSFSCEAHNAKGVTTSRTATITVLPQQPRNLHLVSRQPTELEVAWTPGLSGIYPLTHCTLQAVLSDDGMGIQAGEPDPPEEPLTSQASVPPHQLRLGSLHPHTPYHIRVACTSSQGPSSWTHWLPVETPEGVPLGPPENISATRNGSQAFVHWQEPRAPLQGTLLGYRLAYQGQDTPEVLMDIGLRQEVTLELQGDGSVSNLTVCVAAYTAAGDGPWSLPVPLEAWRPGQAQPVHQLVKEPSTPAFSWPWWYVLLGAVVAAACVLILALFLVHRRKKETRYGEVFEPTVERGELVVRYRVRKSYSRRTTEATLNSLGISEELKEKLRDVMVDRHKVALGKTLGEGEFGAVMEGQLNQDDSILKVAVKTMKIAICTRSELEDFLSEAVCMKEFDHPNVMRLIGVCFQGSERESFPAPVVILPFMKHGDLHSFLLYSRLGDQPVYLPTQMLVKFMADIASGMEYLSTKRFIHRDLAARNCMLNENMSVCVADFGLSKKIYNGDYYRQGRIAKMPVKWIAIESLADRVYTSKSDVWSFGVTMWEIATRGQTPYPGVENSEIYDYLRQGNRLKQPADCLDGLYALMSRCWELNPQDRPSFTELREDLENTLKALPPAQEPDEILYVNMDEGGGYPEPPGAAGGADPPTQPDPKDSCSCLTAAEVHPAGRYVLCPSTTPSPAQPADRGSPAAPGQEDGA

`COc1cc(N(C)c2ccnc3ccc(C(F)(F)F)cc23)cc(OC)c1OC` was tested, and the % binding [1] was 86%.

In the case of `CCn1c(-c2nc3cc(C(=O)N4CCCC(N)C4)ccc3n2C)cc2ccccc21` (configuration not stated), the pXC50 [2] is reported as < 4.5 M.

`Nc1cnc(N2CCc3cc(S(=O)(=O)Nc4c(F)cc(Cl)cc4F)cc(N4CCCC4=O)c32)nc1` [TP-020n] was tested, and the % of control [3] was 100%.

With `O=C(NOC[C@H](O)CO)c1ccc(F)c(F)c1Nc1ccc(I)cc1F` the % of control [4] was 98% and the % of control [5] was 100%.

In the case of `Cn1cc(-n2cnc3c(NCc4nc5cc(Cl)c(Cl)cc5[nH]4)nc(N4CCOCC4)nc32)cn1`, the % of inhibition [6] is reported as 83.4% and the % of inhibition [7] is reported as 52.8%.

For `CC[C@@H]1[C@H](F)C(=O)N[C@@H]1COc1nccc2cc(C(N)=O)c(OC)cc12` [ZIMLOVISERTIB], the % of inhibition [8] was -19%.

In the case of `CN(C)C/C=C/C(=O)Nc1ccc(C(=O)N2CCCC(Nc3ncc(Cl)c(-c4c[nH]c5ccccc45)n3)C2)cc1` (configuration not stated), the % of control [9] is reported as 99%, the % of control [10] is reported as 97% and the % of control [11] is reported as 84%.

`N#Cc1cccc(-c2c[nH]c3ncnc(N4CCOCC4)c23)c1` showed a % of inhibition [12] of 41%.
